In patent US20100137303A1, “NEW COMPOUND 255” (AstraZeneca AB, priority 2008, published 2010):
≈ marks a conversion by molar mass, not a printed value.

What was measured:
Eco-tolC = test: Bacterial susceptibility testing in liquid media, Eco-tolC MIC; conditions: for MIC: Escherichia coli, read-out: Eco-tolC MIC
Spn548 = test: Bacterial susceptibility testing in liquid media, Spn548 MIC; conditions: Streptococcus pneumoniae, 24 h, read-out: Spn548 Mean MIC
From the text: Compounds may be tested for antimicrobial activity by susceptibility testing in liquid media. Compounds may be dissolved in dimethylsulfoxide and tested in 10 doubling dilutions in the susceptibility assays. The organisms used in the assay may be grown overnight on suitable agar media and then suspended in a liquid medium appropriate for the growth of the organism. The suspension can be a 0.5 McFarland and a further 1 in 10 dilution can be made into the same liquid medium to prepare the final organism suspension in 100 μL. Plates can be incubated under appropriate conditions at 37° C. for 24 hrs prior to reading.

M. tuberculosis = test: Mycobacteria susceptibility testing, Microplate Alamar Blue Assay, Mtu MIC; type: cell-based, Mycobacterium tuberculosis (Mtu); conditions: for MIC: Mycobacterium tuberculosis
Msm. GyrB = target: T1, Msm. GyrB (Mycolicibacterium smegmatis, UniProt A0QNE0); test: Msmegmatis GyrB enzyme assay (ATPase, malachite green phosphate detection); type: biochemical; conditions: read-out: Msm_GyrB IC50
T1 construct: 15 nM Msm; GyrB, 650 μM ATP, and compound in dimethyl sulfoxide
Procedure: Compounds may be tested for inhibition of GyrB ATPase activity using an ammonium molybdate/malachite green-based phosphate detection assay (Lanzetta, P. A., L. J. Alvarez, P. S. Reinach, and O. A. Candia, 1979, 100: 95-97; Innova Biosciences malachite green detection kit). Assays can be performed in multi-well plates in 50 μl reactions containing: 50 mM HEPES buffer pH 7.7, 250 mM potassium glutamate, 200 mM potassium chloride, 2 mM magnesium chloride, 2% glycerol, 1 mM 1,4-Dithio-DL-threitol, 0.005% Brij-35, 15 nM Msm. GyrB, 650 μM ATP, and compound in dimethyl sulfoxide. Reactions can be quenched with 12.5 μl of ammonium molybdate/malachite green detection reagent (Pi color lock gold & accelerator mix; Innova Biosciences), followed by the addition of 5 μl of stabilizer (Innova Biosciences) after 5 min of incubation.

T1 sequence (A0QNE0 whole entry): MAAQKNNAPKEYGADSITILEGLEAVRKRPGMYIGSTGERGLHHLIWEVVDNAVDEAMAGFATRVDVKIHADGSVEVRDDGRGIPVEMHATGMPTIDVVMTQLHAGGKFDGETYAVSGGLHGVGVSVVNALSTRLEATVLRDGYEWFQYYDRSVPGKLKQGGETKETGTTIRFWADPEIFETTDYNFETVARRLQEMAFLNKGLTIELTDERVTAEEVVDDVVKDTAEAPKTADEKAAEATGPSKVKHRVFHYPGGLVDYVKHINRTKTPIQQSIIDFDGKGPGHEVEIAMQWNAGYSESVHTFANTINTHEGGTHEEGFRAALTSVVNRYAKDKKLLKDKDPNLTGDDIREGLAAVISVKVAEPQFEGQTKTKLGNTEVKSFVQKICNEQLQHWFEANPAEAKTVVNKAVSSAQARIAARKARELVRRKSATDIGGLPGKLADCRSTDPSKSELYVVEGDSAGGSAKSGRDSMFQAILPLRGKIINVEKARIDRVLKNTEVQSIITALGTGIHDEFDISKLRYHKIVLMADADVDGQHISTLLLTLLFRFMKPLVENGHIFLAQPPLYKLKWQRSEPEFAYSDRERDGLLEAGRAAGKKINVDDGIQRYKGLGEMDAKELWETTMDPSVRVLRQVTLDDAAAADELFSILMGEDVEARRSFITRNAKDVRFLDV

CCNC(=O)Nc1nc2cc(-c3cncnc3)c(OCC3CCOC3)nc2s1 (single isomer, unassigned; isomer 1) [Example 68, 1-ethyl-3-[6-pyrimidin-5-yl-5-(tetrahydrofuran-3-ylmethoxy)[1,3]thiazolo[5,4-b]pyridin-2-yl]urea (Chiral isomer 1)]
MIC (Eco-tolC): 0.5 µg/mL (≈ 1.25 µM)
MIC (Spn548): 0.125 µg/mL (≈ 0.312 µM)
MIC (M. tuberculosis): 0.0884 µg/mL (≈ 0.221 µM)

CCNC(=O)Nc1nc2cc(-c3cncnc3)c(OCC3CCOC3)nc2s1 (single isomer, unassigned; isomer 2) [Example 69, 1-ethyl-3-[6-pyrimidin-5-yl-5-(tetrahydrofuran-3-ylmethoxy)[1,3]thiazolo[5,4-b]pyridin-2-yl]urea (Chiral isomer 2)]
Eco-tolC MIC (Eco-tolC): 0.25 µg/mL
Mtu MIC (M. tuberculosis): 0.08839 µg/mL

C=CCNC(=O)Nc1nc2cc(Cl)cnc2s1 [Example 1, 1-Allyl-3-(6-chloro-thiazolo [5,4-b]pyridin-2-yl)-urea]
MIC (Eco-tolC): 16 µg/mL (≈ 59.5 µM)
IC50 (Msm. GyrB): 0.191 µM
MIC (Spn548): 8 µg/mL (≈ 29.8 µM)
MIC (M. tuberculosis): 16 µg/mL (≈ 59.5 µM)

C=CCNC(=O)Nc1nc2cc(Br)c(C)nc2s1 [Example 2, 1-Allyl-3-(6-bromo-5-methyl-thiazolo [5,4-b]pyridin-2-yl)-urea]
MIC (Eco-tolC): 32 µg/mL (≈ 97.8 µM)
IC50 (Msm. GyrB): 2.19 µM
MIC (Spn548): > 32 µg/mL

C=CCNC(=O)Nc1nc2cc(-c3cccnc3)cnc2s1 [Example 3, 1-allyl-3-[6-(3-pyridyl)thiazolo [5,4-b]pyridin-2-yl] urea]
MIC (Eco-tolC): > 64 µg/mL
MIC (Spn548): 1 µg/mL (≈ 3.21 µM)
MIC (M. tuberculosis): 10.1 µg/mL (≈ 32.4 µM)

CCNC(=O)Nc1nc2cc(-c3cnc(OC)nc3)cnc2s1 [Example 4, 1-ethyl-3-[6-(2-methoxypyrimidin-5-yl)thiazolo [5,4-b]pyridin-2-yl] urea]
MIC (Eco-tolC): > 64 µg/mL
IC50 (Msm. GyrB): 0.14 µM
MIC (Spn548): 0.5 µg/mL (≈ 1.51 µM)
MIC (M. tuberculosis): > 8 µg/mL

CCNC(=O)Nc1nc2cc(-c3cccnc3)cnc2s1 [Example 5, 1-Ethyl-3-(6-pyridin-3-yl-thiazolo [5,4-b]pyridin-2-yl)-urea]
MIC (Eco-tolC): 8.83 µg/mL (≈ 29.5 µM)
MIC (Spn548): 1.56 µg/mL (≈ 5.21 µM)

C=CCNC(=O)Nc1nc2cc(-c3cncnc3)c(C)nc2s1 [Example 6, 1-Allyl-3-(5-methyl-6-pyrimidin-5-yl-thiazolo [5,4-b]pyridin-2-yl)-urea]
MIC (Eco-tolC): 32.3 µg/mL (≈ 99 µM)
IC50 (Msm. GyrB): 0.151 µM
MIC (Spn548): 1.01 µg/mL (≈ 3.09 µM)
MIC (M. tuberculosis): 8 µg/mL (≈ 24.5 µM)

C=CCNC(=O)Nc1nc2cc(-c3cnc(OC)nc3)c(C)nc2s1 [Example 7, 1-Allyl-3-[6-(2-methoxy-pyrimidin-5-yl)-5-methyl-thiazolo [5,4-b]pyridin-2-yl]-urea]
MIC (Eco-tolC): > 32 µg/mL
IC50 (Msm. GyrB): 0.239 µM
MIC (Spn548): 0.0625 µg/mL (≈ 0.175 µM)
MIC (M. tuberculosis): 32 µg/mL (≈ 89.8 µM)

C=CCNC(=O)Nc1nc2cc(-c3cncc(C(=O)OCC)c3)c(C)nc2s1 [Example 8, 5-[2-(3-Allyl-ureido)-5-methyl-thiazolo [5,4-b]pyridin-6-yl]-nicotinic acid ethyl ester]
MIC (Eco-tolC): > 39.8 µg/mL
IC50 (Msm. GyrB): 0.151 µM
MIC (Spn548): > 39.8 µg/mL
MIC (M. tuberculosis): > 32 µg/mL

CCNC(=O)Nc1nc2cc(-c3cncc(C(=O)OCC)c3)cnc2s1 [Example 9, 5-[2-(3-Ethyl-ureido)-thiazolo [5,4-b]pyridin-6-yl]-nicotinic acid ethyl ester]
MIC (Eco-tolC): > 37.1 µg/mL
IC50 (Msm. GyrB): 0.0511 µM
MIC (Spn548): 0.58 µg/mL (≈ 1.56 µM)
MIC (M. tuberculosis): > 32 µg/mL

C=CCNC(=O)Nc1nc2cc(-c3cncc(C(=O)O)c3)cnc2s1 [Example 10, 5-[2-(3-Allyl-ureido)-thiazolo[5,4-b]pyridin-6-yl]-nicotinic acid]
MIC (Eco-tolC): > 64 µg/mL
IC50 (Msm. GyrB): 0.185 µM
MIC (Spn548): 32 µg/mL (≈ 90 µM)
MIC (M. tuberculosis): > 16 µg/mL

CCNC(=O)Nc1nc2cc(-c3cncc(C(=O)O)c3)cnc2s1 [Example 11, 5-[2-(3-Ethyl-ureido)-thiazolo [5,4-b]pyridin-6-yl]-nicotinic acid]
MIC (Eco-tolC): > 34.3 µg/mL
IC50 (Msm. GyrB): 0.159 µM
MIC (Spn548): 17.2 µg/mL (≈ 50 µM)
MIC (M. tuberculosis): 32 µg/mL (≈ 93.2 µM)

C=CCNC(=O)Nc1nc2cc(-c3cncc(C(=O)O)c3)c(C)nc2s1 [Example 12, 5-[2-(3-Allyl-ureido)-5-methylthiazolo [5,4b]pyridin-6-yl]nicotinic acid]
MIC (Eco-tolC): > 32 µg/mL
IC50 (Msm. GyrB): 0.166 µM
MIC (Spn548): 32 µg/mL (≈ 86.6 µM)
MIC (M. tuberculosis): > 32 µg/mL

C=CCNC(=O)Nc1nc2cc(-c3cccnc3)c(OCCN3CCOCC3)nc2s1 [Example 28, 1-[5-(2-morpholin-4-ylethoxy)-6-pyridin-3-yl[1,3]thiazolo[5,4-b]pyridin-2-yl]-3-prop-2-en-1-ylurea]
MIC (Eco-tolC): > 32 µg/mL
MIC (Spn548): 4 µg/mL (≈ 9.08 µM)
MIC (M. tuberculosis): > 22.6 µg/mL

C=CCNC(=O)Nc1nc2cc(-c3cccnc3)c(OCCOC)nc2s1 [Example 29, 1-[5-(2-methoxyethoxy)-6-pyridin-3-yl[1,3]thiazolo[5,4-b]pyridin-2-yl]-3-prop-2-en-1-ylurea]
MIC (Eco-tolC): 1.22 µg/mL (≈ 3.16 µM)
MIC (Spn548): 0.152 µg/mL (≈ 0.395 µM)
MIC (M. tuberculosis): 4 µg/mL (≈ 10.4 µM)

CCNC(=O)Nc1nc2cc(-c3cncnc3)c(OCC3CCOC3)nc2s1 (centres unmarked) [Example 36, 1-ethyl-3-[6-pyrimidin-5-yl-5-(tetrahydrofuran-3-ylmethoxy)[1,3]thiazolo[5,4-b]pyridin-2-yl]urea]
MIC (Eco-tolC): 0.125 µg/mL (≈ 0.312 µM)
MIC (Spn548): 0.0625 µg/mL (≈ 0.156 µM)
MIC (M. tuberculosis): 0.0544 µg/mL (≈ 0.136 µM)

CCNC(=O)Nc1nc2cc(-c3ccc(F)nc3)c(OCC3CCOC3)nc2s1 (centres unmarked) [Example 40, 1-ethyl-3-[6-(6-fluoropyridin-3-yl)-5-(tetrahydrofuran-3-ylmethoxy)[1,3]thiazolo[5,4-b]pyridin-2-yl]urea]
MIC (Eco-tolC): 0.571 µg/mL (≈ 1.37 µM)
MIC (Spn548): 0.0714 µg/mL (≈ 0.171 µM)
MIC (M. tuberculosis): 0.354 µg/mL (≈ 0.847 µM)

CCNC(=O)Nc1nc2cc(-c3cccnc3)c(OCC3CCOC3)nc2s1 (centres unmarked) [Example 42, 1-ethyl-3-[6-pyridin-3-yl-5-(tetrahydrofuran-3-ylmethoxy)[1,3]thiazolo[5,4-b]pyridin-2-yl]urea]
MIC (Eco-tolC): 1.25 µg/mL (≈ 3.12 µM)
MIC (Spn548): 0.078 µg/mL (≈ 0.195 µM)
MIC (M. tuberculosis): 0.42 µg/mL (≈ 1.05 µM)

CCNC(=O)Nc1nc2cc(-c3cncnc3)c(OCCOC)nc2s1 [Example 44, 1-ethyl-3-[5-(2-methoxyethoxy)-6-pyrimidin-5-yl[1,3]thiazolo[5,4-b]pyridin-2-yl]urea]
MIC (Eco-tolC): 1.17 µg/mL (≈ 3.12 µM)
MIC (Spn548): 0.0731 µg/mL (≈ 0.195 µM)
MIC (M. tuberculosis): 0.25 µg/mL (≈ 0.668 µM)

CCNC(=O)Nc1nc2cc(-c3cccnc3)c(OCCOC)nc2s1 [Example 45, 1-ethyl-3-[5-(2-methoxyethoxy)-6-pyridin-3-yl[1,3]thiazolo[5,4-b]pyridin-2-yl]urea]
MIC (Eco-tolC): 4.67 µg/mL (≈ 12.5 µM)
MIC (Spn548): 0.292 µg/mL (≈ 0.781 µM)
MIC (M. tuberculosis): 1 µg/mL (≈ 2.68 µM)

CCNC(=O)Nc1nc2cc(-c3ccc(C#N)nc3)c(OCC3CCOC3)nc2s1 (centres unmarked) [Example 54, 1-[6-(6-cyanopyridin-3-yl)-5-(tetrahydrofuran-3-ylmethoxy)[1,3]thiazolo[5,4-b]pyridin-2-yl]-3-ethylurea]
MIC (Eco-tolC): 1 µg/mL (≈ 2.36 µM)
MIC (Spn548): 0.0625 µg/mL (≈ 0.147 µM)
MIC (M. tuberculosis): 0.177 µg/mL (≈ 0.417 µM)

CCNC(=O)Nc1nc2cc(-c3cncc(C#N)c3)c(OCC3CCOC3)nc2s1 (centres unmarked) [Example 57, 1-[6-(5-cyanopyridin-3-yl)-5-(tetrahydrofuran-3-ylmethoxy)[1,3]thiazolo[5,4-b]pyridin-2-yl]-3-ethylurea]
MIC (Eco-tolC): 0.0625 µg/mL (≈ 0.147 µM)
MIC (Spn548): 0.0625 µg/mL (≈ 0.147 µM)
MIC (M. tuberculosis): 0.25 µg/mL (≈ 0.589 µM)

CCNC(=O)Nc1nc2cc(-c3cnn(C)c3)c(OCC3CCOC3)nc2s1 (centres unmarked) [Example 71, 1-ethyl-3-[6-(1-methyl-1H-pyrazol-4-yl)-5-(tetrahydrofuran-3-ylmethoxy)[1,3]thiazolo[5,4-b]pyridin-2-yl]urea]
MIC (Eco-tolC): 0.5 µg/mL (≈ 1.24 µM)
MIC (Spn548): 0.125 µg/mL (≈ 0.311 µM)
MIC (M. tuberculosis): 0.707 µg/mL (≈ 1.76 µM)

CCNC(=O)Nc1nc2cc(-c3cncnc3)c(OC(C)C)nc2s1 [Example 73, 1-ethyl-3-[5-(1-methylethoxy)-6-pyrimidin-5-yl[1,3]thiazolo[5,4-b]pyridin-2-yl]urea]
IC50 (Msm. GyrB): 0.0052 µM
MIC (M. tuberculosis): 0.125 µg/mL (≈ 0.349 µM)

CCNC(=O)Nc1nc2cc(-c3ccc(F)nc3)c(OC(C)C)nc2s1 [Example 74, 1-ethyl-3-[6-(6-fluoropyridin-3-yl)-5-(1-methylethoxy)[1,3]thiazolo[5,4-b]pyridin-2-yl]urea]
IC50 (Msm. GyrB): 0.01 µM
MIC (M. tuberculosis): 1 µg/mL (≈ 2.66 µM)

CCNC(=O)Nc1nc2cc(-c3cnc(C#N)nc3)c(OC3CCOC3)nc2s1 (centres unmarked) [Example 75, 1-[6-(2-cyanopyrimidin-5-yl)-5-(tetrahydrofuran-3-yloxy)[1,3]thiazolo[5,4-b]pyridin-2-yl]-3-ethylurea]
IC50 (Msm. GyrB): < 0.00254 µM
MIC (M. tuberculosis): < 0.06 µg/mL

CCNC(=O)Nc1nc2cc(-c3ccc(F)nc3)c(OC3CCOC3)nc2s1 (centres unmarked) [Example 76, 1-ethyl-3-[6-(6-fluoropyridin-3-yl)-5-(tetrahydrofuran-3-yloxy)[1,3]thiazolo[5,4-b]pyridin-2-yl]urea]
IC50 (Msm. GyrB): 0.00354 µM
MIC (M. tuberculosis): 0.5 µg/mL (≈ 1.24 µM)

CCNC(=O)Nc1nc2cc(-c3cnc(C(F)(F)F)nc3)c(OCC3CCOC3)nc2s1 (centres unmarked) [Example 77, 1-ethyl-3-{5-(tetrahydrofuran-3-ylmethoxy)-6-[2-(trifluoromethyl)pyrimidin-5-yl][1,3]thiazolo[5,4-b]pyridin-2-yl}urea]
IC50 (Msm. GyrB): 0.0029 µM
MIC (M. tuberculosis): 2.83 µg/mL (≈ 6.04 µM)

CCNC(=O)Nc1nc2cc(-c3cncc(-c4n[nH]c(=O)o4)c3)c(OCC3CCOC3)nc2s1 (centres unmarked) [Example 78, 1-ethyl-3-{6-[5-(5-oxo-4,5-dihydro-1,3,4-oxadiazol-2-yl)pyridin-3-yl]-5-(tetrahydrofuran-3-ylmethoxy)[1,3]thiazolo[5,4-b]pyridin-2-yl}urea]
IC50 (Msm. GyrB): < 0.00254 µM
MIC (M. tuberculosis): 8 µg/mL (≈ 16.5 µM)

CCNC(=O)Nc1nc2cc(-c3cncc(F)c3)c(OCC3CCOC3)nc2s1 (centres unmarked) [Example 79, 1-ethyl-3-[6-(5-fluoropyridin-3-yl)-5-(tetrahydrofuran-3-ylmethoxy)[1,3]thiazolo[5,4-b]pyridin-2-yl]urea]
MIC (M. tuberculosis): 0.354 µg/mL (≈ 0.847 µM)
